Several values for one entry are separate records, joined by “and”; a condition that tells them apart may be missing. Identical values can stand only once.
molecular target: T1, Thyroid hormone receptor beta (Homo sapiens, UniProt P10828)
T1 sequence (P10828 whole entry): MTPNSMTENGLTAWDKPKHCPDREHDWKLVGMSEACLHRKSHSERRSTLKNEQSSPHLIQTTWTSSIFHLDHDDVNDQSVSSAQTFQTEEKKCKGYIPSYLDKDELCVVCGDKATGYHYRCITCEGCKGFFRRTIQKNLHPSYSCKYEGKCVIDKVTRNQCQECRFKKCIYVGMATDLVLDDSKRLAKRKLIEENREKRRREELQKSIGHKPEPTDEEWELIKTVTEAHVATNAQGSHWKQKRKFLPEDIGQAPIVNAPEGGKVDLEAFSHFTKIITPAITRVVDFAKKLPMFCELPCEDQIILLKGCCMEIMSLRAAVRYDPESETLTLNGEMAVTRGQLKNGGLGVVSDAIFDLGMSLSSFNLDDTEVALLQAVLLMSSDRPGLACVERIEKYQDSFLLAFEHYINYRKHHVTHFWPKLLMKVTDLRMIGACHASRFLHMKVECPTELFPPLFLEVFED

| IC50 | SMILES |
| --- | --- |
| 0.0562 nM | O=c1cnn(-c2cc(Cl)c(Oc3ccc(O)c(S(=O)(=O)N4CCCCC4)c3)c(Cl)c2)c(=O)[nH]1 |
| 75.9 nM | Cc1cc(-n2ncc(=O)[nH]c2=O)cc(Cl)c1Oc1ccc(O)c(S(=O)(=O)N2CCOCC2)c1 |
| 1.78 nM | O=C(NC1CCC1)c1cc(Oc2c(Cl)cc(-n3ncc(=O)[nH]c3=O)cc2Cl)ccc1O |
| 0.871 nM | O=c1cnn(-c2cc(Cl)c(Oc3ccc(O)c(S(=O)(=O)N4C5CCC4CC4(C5)OCCO4)c3)c(Cl)c2)c(=O)[nH]1 |
| 0.282 nM | O=c1cnn(-c2cc(Cl)c(Oc3ccc(O)c(S(=O)(=O)Nc4ccccc4)c3)c(Cl)c2)c(=O)[nH]1 |
| 37.2 nM | O=C(O)Cc1cc(Br)c(Oc2ccc(O)c(C(=O)NCC(c3ccccc3)c3ccccc3)c2)c(Br)c1 |
| 0.646 nM | O=c1cnn(-c2cc(Cl)c(Oc3ccc(O)c(S(=O)(=O)N4CCc5ccccc54)c3)c(Cl)c2)c(=O)[nH]1 |
| 1.02 nM | CC1(C)C2CCC1(C)[C@H](NC(=O)c1cc(Oc3c(Cl)cc(-n4ncc(=O)[nH]c4=O)cc3Cl)ccc1O)C2 (some centres not stated) |
| 4.79 nM | COc1ccc(CCNC(=O)c2cc(Oc3c(Br)cc(CC(=O)O)cc3Br)ccc2O)cc1 |
| 8.51 nM | COc1cccc(CCNC(=O)c2cc(Oc3c(Br)cc(CC(=O)O)cc3Br)ccc2O)c1 |
| 1.29 nM | O=c1cnn(-c2cc(Cl)c(Oc3ccc(O)c(S(=O)(=O)NC4CCCCC4)c3)c(Cl)c2)c(=O)[nH]1 |
| 4.17 nM | O=C(O)Cc1cc(Br)c(Oc2ccc(O)c(C(=O)NC(=O)c3ccccc3)c2)c(Br)c1 |
| 0.468 nM | COc1ccccc1CCNC(=O)c1cc(Oc2c(Br)cc(CC(=O)O)cc2Br)ccc1O |
| 0.166 nM | CC1(C)C2CCC(NC(=O)c3cc(Oc4c(Cl)cc(-n5ncc(=O)[nH]c5=O)cc4Cl)ccc3O)C1C2 (stereo in doubt; 42) |
| 0.112 nM | CC1(C)C2CCC(NC(=O)c3cc(Oc4c(Cl)cc(-n5ncc(=O)[nH]c5=O)cc4Cl)ccc3O)C1C2 (stereo in doubt; 43) |

| SMILES | IC50 |
| --- | --- |
| O=c1cnn(-c2cc(Cl)c(Oc3ccc(O)c(S(=O)(=O)NC4CCC4)c3)c(Cl)c2)c(=O)[nH]1 | 1.12 nM |
| O=C(c1cc(Oc2c(Cl)cc(-n3ncc(=O)[nH]c3=O)cc2Cl)ccc1O)N1CCOCC1 | 2 nM |
| O=C(c1cc(Oc2c(Cl)cc(-n3ncc(=O)[nH]c3=O)cc2Cl)ccc1O)N1CCCCC1 | 1.74 nM and 5.25 nM |
| Cc1cc(-n2ncc(=O)[nH]c2=O)cc(Cl)c1Oc1ccc(O)c(S(=O)(=O)N2CCCCC2)c1 | 0.363 nM |
| O=c1cnn(-c2cc(Cl)c(Oc3ccc(O)c(S(=O)(=O)N4C5CCC4CC4(CCCO4)C5)c3)c(Cl)c2)c(=O)[nH]1 (configuration not stated) | 0.776 nM |
| Cc1cc(-n2ncc(=O)[nH]c2=O)cc(C)c1Oc1ccc(O)c(S(=O)(=O)N2CCCCC2)c1 | 1.29 nM |
| O=C(NC1CCCCC1)c1cc(Oc2c(Cl)cc(-n3ncc(=O)[nH]c3=O)cc2Cl)ccc1O | 0.195 nM |

Reference: ChEMBL document CHEMBL1149596, “QSAR study of selective ligands for the thyroid hormone receptor beta” (Bioorg Med Chem, 2007)
